Measurements from patent US5571799A, “(2'-5') oligoadenylate analogues useful as inhibitors of host-v5.-graft response” (Basco, Ltd., priority 1994, dated 1996).
Entries after “also recorded” stand apart in the source; their conditions may differ.

Key:
[1] = system: snake venom phosphodiesterase; assay: Stability to the action of snake venom phosphodiesterase; assay type: in vitro ADME
Experimental: Determination of (2'-5')oligoadenylates and analogues stability to the action of snake venom phosphodiesterase
Upon entering an organism 2'-5'A3 and the analogues are quickly hydrolyzed to monomeric compound(s). Prior to administration of 2'-5'A3 analogues in vivo to animal, it was considered necessary to determine their stability towards snake venom phosphodiesterase in comparison to the parent 2'-5'A3.
The solution of 3 μg of the snake venom phosphodiesterase (Boehringer Mannheim cat. No. 108260) in 30 μl of 0.1 M Tris HCl buffer, containing 0.002 M MgCl2 (pH 8.78) is added to the solution of 4-5·10^-7 M trimer in 100 μl of the same buffer. The solution was left standing at 20° C. At regular intervals, 10 μl samples were taken, heated at 90° C. for 1 minute and preparative thin layer chromatography was performed on the Silufole™ plates, using a 7:1:2 mixture of isopropanol:aqueous ammonia:water.
The spot, corresponding to the initial trimer, was cut out, the substance was extracted with 2 ml of 0.5% solution of the dodecylsulfate sodium salt solution for 2 hours, and the optical density of the solution was determined at 260 nm.

[2] = system: T-lymphocytes (murine splenocytes) stimulated with Concanavalin A; assay: In vitro blast-transformation of murine lymphocytes, Con A (T-lymphocyte mitogen), [3H]-thymidine; assay type: cell-based, mouse (CBA); conditions: Con A 5 μg/ml; 5 × 10^-6 M; control 22,296
Source text: (§1) The immune reactions in an organism begins with the division of lymphocytes. In vitro investigation of the lymphocyte blast-transformationreaction under the influence of mitogens makes it possible to use this model system to select chemically synthesized 2'-5'A3 analogues which suppress division of lymphocytes. Using Concanavalin A and lipopolysaccharide as mitogens, the effect of analogues on the division of T- and β-lymphocytes may be investigated.
CBA mice 8-10 weeks old were used for these experiments. A suspension of mouse splenocytes were obtained by gently teasing spleens with forceps. […] Cultures were maintained in 5% CO2 at 37° C. One μCi of ^3 H-thymidine (Isotop®) was added to each well 4 hours before the end of the incubation period. Incorporation of ^3 H-thymidine into cellular DNA was determined by liquid scintillation counting using standard techniques. Oligoadenylate was added to the medium at the beginning of culturing to achieve the final concentration.
(§2) (Con A being a mitogen for T-lymphocytes and LPS being a mitogen for β-lymphocytes).

[3] = system: β-lymphocytes (murine splenocytes) stimulated with lipopolysaccharide; assay: In vitro blast-transformation of murine lymphocytes, LPS (β-lymphocyte mitogen), [3H]-thymidine; assay type: cell-based, mouse (CBA); conditions: LPS 0.1 μg/ml; 5 × 10^-6 M; control 27,133
Source text: as §1
CBA mice 8-10 weeks old were used for these experiments. A suspension of mouse splenocytes were obtained by gently teasing spleens with forceps. Lymphocytes cultivated in flat-bottomed 96-well plates (Linbro) in RPMI-1640 medium (Flow Lab.) were supplemented with 2 mM 1-glutamine, 10 μg/ml gentamicin, 10^-5 M 2-mercaptoethanol and 10% heat inactivated fetal calf serum (Flow Lab). Cultures were maintained in 5% CO2 at 37° C. One μCi of ^3 H-thymidine (Isotop®) was added to each well 4 hours before the end of the incubation period. Incorporation of ^3 H-thymidine into cellular DNA was determined by liquid scintillation counting using standard techniques. Oligoadenylate was added to the medium at the beginning of culturing to achieve the final concentration.
as §2

[4] = system: T-helpers; assay: Immune system of monkeys: T-helpers, flow cytofluorografic analysis; assay type: in vivo, Macaque Rh. monkeys
Experimental: (§3) The experiments were performed on 4 year-old Macaque Rh. monkeys. The levels of the principal subpopulations of T-lymphocytes, IgA, IgG, IgM and the amount of α- and γ-interferon and interleukin II after administration (2'-5')olygoadenylate and its analogies at the concentration of 50 and 25 μg/kg of the body weight was investigated.
(§4) FLOW CYTOFLUOROGRAFIC ANALYSIS OF LYMPHOCYTE SUBSETS
(§5) Blood samples (100 μl of whole blood) were placed into a 12×17 tube. To these cells 20 μl of purified monoclonal antibodies were added with specificity for human cytotoxic/suppressor cells anti-Leu-2a (CD8), human helper/inducer anti-Leu-3a (CD4) and FITC conjugated monoclonal antibodies with specificity for natural killer cells-anti-Leu11c (CD16) (Becton Dickinson, San Jose). After 30 minutes incubation on ice, the cells were washed once and 20 μl of goat-antimouse chain phycoerythrin (Sigma P1286) conjugate were added to the tube with anti-Leu-2a and anti-Leu-3a monoclonal antibodies.
(§6) After erythrocyte lysing with FACS lysing solution (Becton Dickinson, San Jose) the cells were analyzed on FACScan flow cytometer (Becton Dickinson, San Jose) with scatter gate set on lymphocyte fraction.

[5] = system: T-suppressors; assay: Immune system of monkeys: T-suppressors, flow cytofluorografic analysis; assay type: in vivo, Macaque Rh. monkeys
Experimental: as §3, with “Immunosuppressive activity of the prototype 2'-5'A3 and two analogues (2'-5')A2 Ar-epoxy and (2'-5')A2 A^l-epoxy were investigated in monkeys. The experiments” for “The experiments”
as §4, §5, §6

[6] = system: T-killers and T-helpers; assay: Immunosuppressive activity in vivo in monkeys; design: species or system Macaque Rh. monkeys; conditions: monkeys, IV, disodium salt
Experimental: as §3, §4, §5, §6

[7] = system: Type I and II herpes virus; conditions: cited from earlier work

With “Adenylyl (2'-5')adenylyl (2'-5')-9-(2,3-anhydro-β-D-lyxofuranosyl) adenine disodium salt [(2'-5')A2 A^l-epoxy]” the “T 1/2 (time for optical density of initial trimer to decrease by 50%)” value ([1]; 20° C., 0.1 M Tris HCl, 0.002 M MgCl2, pH 8.78) was 10.5 h, the “stability / resistance to phosphodiesterase” value ([1]; in words) was “significantly more resistant towards hydrolysis by phosphodiesterase” and the “DNA synthesis at [^3 H]-thymidine [incorporated counts/min.]” value [2] was 15,749 counts/min. For the same substance, the “DNA synthesis at [^3 H]-thymidine [incorporated counts/min.]” value [3] was 10,828 counts/min, the T-helpers ([4]; Table 8, single IV 25 μg/kg, day 2, control (day before) 26.2) was 27% and the T-helpers ([4]; Table 8, single IV 25 μg/kg, day 4, control (day before) 26.2) was 25.3%. It also gave a T-helpers ([4]; Table 9, single IV 50 μg/kg, day 2, control (day before) 22) of 20.5%, a T-helpers ([4]; Table 9, single IV 50 μg/kg, day 4, control (day before) 22) of 18.4% and a T-suppressors ([5]; Table 8, single IV 25 μg/kg, day 2, control (day before) 53.1) of 44%. The T-suppressors ([5]; Table 8, single IV 25 μg/kg, day 4, control (day before) 53.1) was 43.4%, the T-suppressors ([5]; Table 9, single IV 50 μg/kg, day 2, control (day before) 42) was 44% and the T-suppressors ([5]; Table 9, single IV 50 μg/kg, day 4, control (day before) 42) was 43.4%. The “immunosuppressive activity, in words” value [6] was “considerably lower than that exhibited by (2'-5')A2 Ar-epoxy; also recorded: exhibit immunosuppressive activity in the in vivo experiments”, the “immunosuppressive activity, in words” value ([6]; listed as (2 -5')A2 A^l-epoxy) was “strong immunosuppressive activity specifically against T-killers and T-helpers” and the “activity against Type I and II herpes virus, in words” value [7] was “active against the Type I and II herpes virus”.
